{
  "source": "patent US7781642B2",
  "about": "“Animal model having a chimeric human liver and susceptible to human hepatitis C virus infection” (KMT Hepatech, Inc., priority 2000, dated 2010)",
  "origin": "cited, not measured here",
  "key": {"[1]": {"tested_on": "HBV", "details": "post needle-stick exposure; cited from earlier work"}, "[2]": {"tested_on": "HCV", "details": "HCV patients; cited from earlier work"}},
  "data": [
    {"substance": "Hepatitis B Immunoglobulin [HBIg]", "values": [
      {"measurement": "Cases in which transmission of HBV was prevented", "setting": "[1]", "value": 80, "unit": "%"}
    ]},
    {"substance": "interferon and ribavirin", "values": [
      {"measurement": "Sustained response rate", "setting": "[2]", "value": "up to 40%"}
    ]}
  ]
}
